“And” between values parts separate entries of the source, which are not always exact repeats. Identical values can stand only once. The source made the active and inactive calls.
What was measured:
Streptococcus = experiment: Group A Streptococcus viability loss, dose response, counter-screen for streptokinase expression inhibitor project, luminescence, BacTiterGlo (AID 1915); format: functional, organism-based;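 note: potency for reduction of bacterial viability or growth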
Streptokinase A = target: T1, Streptokinase A (Streptococcus pyogenes serotype M1, UniProt P10520); experiment: S. pyogenes streptokinase expression inhibitors, potency, dose response, plasminogen activation absorbance, OD405 (AID 1914); format: functional, Streptococcus pyogenes M1 GAS;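 note: secreted streptokinase activity via plasminogen activation per viability signal from cell pellet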
T1 sequence (P10520 whole entry): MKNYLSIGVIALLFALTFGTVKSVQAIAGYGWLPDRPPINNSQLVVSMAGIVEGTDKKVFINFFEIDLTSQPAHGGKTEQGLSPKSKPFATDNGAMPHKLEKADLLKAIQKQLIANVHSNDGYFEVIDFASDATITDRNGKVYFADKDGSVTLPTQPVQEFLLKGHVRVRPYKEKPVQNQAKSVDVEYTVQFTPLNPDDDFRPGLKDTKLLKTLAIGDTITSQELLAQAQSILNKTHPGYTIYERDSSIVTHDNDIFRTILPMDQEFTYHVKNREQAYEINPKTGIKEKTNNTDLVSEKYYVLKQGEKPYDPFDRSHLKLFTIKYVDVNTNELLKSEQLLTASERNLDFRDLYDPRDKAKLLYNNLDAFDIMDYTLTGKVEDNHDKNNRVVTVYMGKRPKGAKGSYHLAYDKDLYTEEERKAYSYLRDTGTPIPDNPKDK

[1] = system: Streptococcus sp. 'group A'; experiment: growth inhibition of control SK(-) GAS strain, dose response, counter-screen for streptokinase expression inhibitor project, luminescence, kanamycin, BacTiterGlo, confirmation (AID 1900); format: functional, organism-based
[2] = cytotoxicity toward NIH3T3 fibroblasts, dose response, counter-screen, cell-based, ATP luminescence, mouse fibroblasts (AID 2010); format: functional;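 note: cells exposed to compound for about 90 hours before reading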
[3] = inhibitors of intracellular T. cruzi replication, confirmation, NIH3T3 host cells, beta-gal luminescence (AID 2044); format: functional, cell-based;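 note: intracellular parasites grown in NIH/3T3 mouse fibroblasts as host cells; luminescent beta-galactosidase reporter signal from transgenic T. cruzi replicating inside host cells; inhibitors lower the luminescence signal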
Cytochrome P450 3A4 = Cytochrome P450 3A4 (Homo sapiens, UniProt P08684);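 note: CYP3A4 tested as one member of a cytochrome P450 panel screen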
Cytochrome P450 2C19 = Cytochrome P450 2C19 (Homo sapiens, UniProt P33261); experiment: Cytochrome panel assay with activity outcomes. Panel member name: p450-cyp2c19 Compounds with AC50 equal or less than 10 uM are considered active; format: functional
Cytochrome P450 1A2 = target: T2, Cytochrome P450 1A2 (Homo sapiens, UniProt P05177);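 note: PubChem cytochrome P450 panel assay, CYP1A2 panel member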
T2 sequence (P05177 whole entry): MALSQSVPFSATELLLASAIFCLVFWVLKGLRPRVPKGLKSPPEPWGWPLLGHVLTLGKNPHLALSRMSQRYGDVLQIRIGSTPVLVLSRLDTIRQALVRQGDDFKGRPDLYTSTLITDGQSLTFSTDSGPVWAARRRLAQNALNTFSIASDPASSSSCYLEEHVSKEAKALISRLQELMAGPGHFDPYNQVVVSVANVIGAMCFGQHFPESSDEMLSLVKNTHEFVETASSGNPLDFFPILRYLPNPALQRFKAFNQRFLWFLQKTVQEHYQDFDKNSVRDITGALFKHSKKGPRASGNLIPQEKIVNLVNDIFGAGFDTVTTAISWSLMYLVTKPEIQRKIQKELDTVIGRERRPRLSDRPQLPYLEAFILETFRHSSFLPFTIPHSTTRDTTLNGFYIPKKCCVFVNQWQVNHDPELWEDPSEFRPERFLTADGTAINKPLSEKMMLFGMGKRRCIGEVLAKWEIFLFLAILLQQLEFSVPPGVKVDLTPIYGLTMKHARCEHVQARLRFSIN

Cytochrome P450 3A4, sequence (P08684 whole entry): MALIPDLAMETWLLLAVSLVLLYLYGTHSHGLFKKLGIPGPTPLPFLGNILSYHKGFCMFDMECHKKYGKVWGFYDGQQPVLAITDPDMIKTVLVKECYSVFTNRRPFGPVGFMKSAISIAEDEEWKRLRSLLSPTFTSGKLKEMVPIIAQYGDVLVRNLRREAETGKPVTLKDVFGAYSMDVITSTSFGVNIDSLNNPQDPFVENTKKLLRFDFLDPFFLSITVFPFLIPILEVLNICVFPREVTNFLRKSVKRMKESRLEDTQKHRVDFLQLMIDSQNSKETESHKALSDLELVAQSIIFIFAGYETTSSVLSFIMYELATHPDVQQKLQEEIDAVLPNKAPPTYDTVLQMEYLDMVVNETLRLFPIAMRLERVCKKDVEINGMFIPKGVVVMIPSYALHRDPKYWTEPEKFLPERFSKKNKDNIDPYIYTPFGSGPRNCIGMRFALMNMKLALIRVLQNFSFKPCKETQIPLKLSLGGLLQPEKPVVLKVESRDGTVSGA
Cytochrome P450 2C19, sequence (P33261 whole entry): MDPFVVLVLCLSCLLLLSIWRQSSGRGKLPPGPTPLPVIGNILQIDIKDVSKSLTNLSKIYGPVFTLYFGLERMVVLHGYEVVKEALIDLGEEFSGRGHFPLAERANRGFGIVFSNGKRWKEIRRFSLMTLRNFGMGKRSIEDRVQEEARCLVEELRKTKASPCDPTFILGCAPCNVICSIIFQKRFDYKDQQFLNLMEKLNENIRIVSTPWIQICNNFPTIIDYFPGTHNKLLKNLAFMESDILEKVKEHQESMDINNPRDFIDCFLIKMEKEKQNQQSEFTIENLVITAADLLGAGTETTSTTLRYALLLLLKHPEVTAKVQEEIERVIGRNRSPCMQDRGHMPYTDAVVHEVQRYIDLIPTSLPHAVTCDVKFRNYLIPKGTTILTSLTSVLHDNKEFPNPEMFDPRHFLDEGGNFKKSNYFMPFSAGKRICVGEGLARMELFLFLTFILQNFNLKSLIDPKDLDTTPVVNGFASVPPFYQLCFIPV

Brc1ccc(Nc2ncnc3[nH]ncc23)cc1
EC50 (Streptococcus): 143 µM (active) | EC50 (Streptokinase A): > 150 µM (not active) | EC50 [1]: 5.77 µM (active)

O=C(NC1CCN(Cc2ccccc2)CC1)c1ccc2c(c1)nc(O)n2Cc1ccc(F)cc1
EC50 [2]: > 60 µM (inconclusive) | EC50 [3]: 0.485 µM (active)

O=S(=O)(Cc1nnnn1-c1ccccc1)c1ccc(F)cc1
EC50 (Streptococcus): > 150 µM (not active) | EC50 (Streptokinase A): > 150 µM (not active) | EC50 [1]: > 150 µM (not active)

COc1cc(-c2nc(-c3ccc4c(c3)-c3ccccc3S4(=O)=O)c(-c3ccccc3)[nH]2)cc(OC)c1OC
EC50 [2]: > 60 µM (not active) | EC50 [3]: 1.81 µM (active)

CCSC1=NC2(CCCCC2)Nc2sc3c(c21)CCCC3
EC50 [2]: 20.6 µM (active) | EC50 [3]: 2.23 µM (active)

CC(=O)Nc1ccc(C2C(=O)c3ccccc3C2=O)cc1
EC50 (Streptococcus): > 150 µM (not active) | EC50 (Streptokinase A): > 150 µM (not active) | EC50 [1]: 31.3 µM (active)

Cc1ccc(C)c(N(CC(=O)NC2CCCC2)C(=O)c2cc3cc4cccc(C)c4nc3s2)c1
AC50 (Cytochrome P450 3A4): 2.51 µM (inconclusive) | AC50 (Cytochrome P450 2C19; read-out: AC50): 6.31 µM (inconclusive)

COc1ccc(C(CCN)c2ccc3c(c2)OCO3)cc1 (stereo not given)
EC50 [2]: > 60 µM (not active) | EC50 [3]: 7.31 µM (active)

O=C(CSc1nnc(NC(=O)c2ccccc2[N+](=O)[O-])s1)NC1CCCC1
EC50 (Streptococcus): > 150 µM (not active) | EC50 (Streptokinase A): > 150 µM (not active) | EC50 [1]: > 150 µM (not active)

Cc1ccc(NC(=O)C2CC2C)cc1S(=O)(=O)N1CCOCC1 (stereo not given)
EC50 [2]: > 30 µM (not active) | EC50 [3]: 1.91 µM (active)

Oc1cc2c(c(Cl)c1O)CCNC[C@H]2c1ccccc1
AC50 (Cytochrome P450 3A4): 39.8 µM (inconclusive) and 12.6 µM (inconclusive)

CN(C)Cc1ccccc1-c1cc(NCc2cccs2)ncn1
AC50 (Cytochrome P450 3A4): 10 µM (inconclusive)

COc1ccccc1CCNC(=O)C(=O)c1cn(CC(=O)N2CCCC2)c2ccccc12
EC50 (Streptococcus): > 150 µM (not active) | EC50 (Streptokinase A): > 150 µM (not active) | EC50 [1]: > 150 µM (not active)

Cc1cc(C(F)F)n2nc(C(=O)Nc3cccnc3Cl)nc2n1
AC50 (Cytochrome P450 2C19): inconclusive

Cc1oc2c(C)c(O)ccc2c(=O)c1-c1ccc2ccccc2n1
AC50 (Cytochrome P450 3A4): 7.94 µM (inconclusive) | AC50 (Cytochrome P450 2C19; read-out: AC50): 2.82 µM (inconclusive)

Cc1[nH]c2ccccc2c1C(=O)COC(=O)c1ccc2c(=O)n3c(nc2c1)CCC3
EC50 (Streptococcus): 1.99 µM (active) | EC50 [1]: 1.74 µM (active)

COc1ccc(C2CC(c3ccc(Br)cc3)=NN2C(=O)CSC2=NN3CCCC(=O)N=C3S2)cc1 (stereo not given)
EC50 [2]: > 60 µM (not active) | EC50 [3]: 4.07 µM (active)

COC(=O)[C@@]1(Cc2ccc(OC)cc2)[C@H]2c3cc(C(=O)N4CCCC4)n(Cc4ccc(OC)c(OC)c4)c3C[C@H]2CN1C(=O)c1ccccc1
AC50 (Cytochrome P450 2C19; read-out: AC50): 15.8 µM (inconclusive)

COc1cc(C(=O)Nc2nc(-c3ccc(C)cc3)cs2)ccc1OCC(=O)N1CCOCC1
EC50 [2]: > 60 µM (inconclusive) | EC50 [3]: 2.04 µM (active)

CC(C)NC(=O)N1CCC2(CC1)CCN(C(=O)c1ccncc1)CC2
AC50 (Cytochrome P450 3A4): 25.1 µM (inconclusive)

CC(=O)NCCNc1ncnc2ccc(-c3ccccc3C#N)cc12
AC50 (Cytochrome P450 3A4): 25.1 µM (inconclusive) | AC50 (Cytochrome P450 2C19; read-out: AC50): 10 µM (inconclusive)

CN(C)c1ncc2nc(CCc3ccccc3)c(=O)n(CCC#N)c2n1
AC50 (Cytochrome P450 3A4): 20 µM (inconclusive)

CCOC(=O)N1CCN(C(=O)c2cc3n(n2)C(C(F)(F)F)CC(c2ccc4c(c2)OCO4)N3)CC1 (stereo not given)
EC50 (Streptococcus): > 150 µM (not active) | EC50 (Streptokinase A): > 150 µM (not active) | EC50 [1]: 62.1 µM (active)

CC(C)C[C@H](NC(=O)c1[nH]cnc1C(=O)Nc1ccccc1)C(=O)OC(C)(C)C
EC50 (Streptococcus): 7.19 µM (active) | EC50 [1]: 3.21 µM (active)

O=[N+]([O-])c1nn(-c2ccccc2)[n+]([O-])c1N1CCN(c2ccccc2F)CC1
EC50 [2]: > 60 µM (not active) | EC50 [3]: 0.458 µM (active)

Cc1ccc(CNC(=O)COC(=O)c2cnccn2)cc1
AC50 (Cytochrome P450 3A4): 17.8 µM (inconclusive) | AC50 (Cytochrome P450 2C19): inconclusive

CC(C)=CCC/C(C)=C/CO/N=C1/C[C@@H](O)[C@@H](O)[C@@H]2[C@@H]3C(=O)N(Cc4ccccc4)C(=O)[C@H]3CC[C@H]12
AC50 (Cytochrome P450 2C19; read-out: AC50): 0.0631 µM (inconclusive)

CCc1ccc(CNc2ccc3c(c2)ncn3C(C)(C)C)cc1
EC50 (Streptococcus): > 150 µM (not active) | EC50 (Streptokinase A): > 150 µM (not active) | EC50 [1]: 10.7 µM (active)

CCOC(=O)c1c(NC(=O)CN2CCCCC2)sc2c1CCN(C(=O)OCC)C2
EC50 [2]: > 60 µM (not active) | EC50 [3]: 1.13 µM (active)

Cc1cccc(NC(=O)NCc2ccc3c(c2)OCO3)c1
EC50 (Streptococcus): > 150 µM (not active) | EC50 (Streptokinase A): > 150 µM (not active) | EC50 [1]: > 150 µM (not active)

CC(C)Oc1cccc(C(=O)NC(=S)N2CCN(c3ccc(C(F)(F)F)cc3[N+](=O)[O-])CC2)c1
AC50 (Cytochrome P450 3A4): 14.1 µM (inconclusive)

CNc1ncnc2ccc(-c3ccccc3C#N)cc12
AC50 (Cytochrome P450 3A4): 12.6 µM (inconclusive)

O=C(Nc1ccc(N2CCCCC2)c(Cl)c1)c1ccc(N2CCOCC2)c([N+](=O)[O-])c1
EC50 [2]: > 60 µM (not active) | EC50 [3]: 1.06 µM (active)

O=c1cnc2cnc(Oc3ccccc3)nc2n1Cc1ccc(F)cc1
AC50 (Cytochrome P450 3A4): 20 µM (inconclusive)

COCC1CCCCN1C(=O)c1ccc2oc(CCCc3ccccc3)nc2c1 (stereo not given)
EC50 (Streptococcus): > 150 µM (not active) | EC50 (Streptokinase A): > 150 µM (not active) | EC50 [1]: 98.8 µM (active)

COc1ccc(C(=O)c2ccc(N3CCN(C4CC(=O)NC4=O)CC3)cc2)cc1F (stereo not given)
EC50 (Streptococcus): 33.3 µM (active) | EC50 (Streptokinase A): > 150 µM (not active) | EC50 [1]: 2.99 µM (active)

S=C(Nc1ccccc1Cl)N(Cc1ccccc1)Cc1cccnc1
EC50 [2]: > 60 µM (not active) | EC50 [3]: 0.992 µM (active)

COc1ccc(CC(=O)NCC2CCCN(Cc3cc(OC)cc(OC)c3)C2)cc1 (stereo not given)
EC50 [2]: > 30 µM (not active) | EC50 [3]: 0.197 µM (active)

COc1ccc(N(CC(=O)NCCSCc2cccc(Cl)c2)S(C)(=O)=O)cc1Cl
EC50 (Streptococcus): 79.6 µM (active) | EC50 (Streptokinase A): 23.2 µM (active) | EC50 [1]: 13 µM (active)

O=C(NC(=S)NNC(=O)c1cccs1)c1ccco1
EC50 (Streptococcus): 36.2 µM (active) | EC50 (Streptokinase A): > 150 µM (not active) | EC50 [1]: 7.02 µM (active)

CCCOc1ccc(-c2nn(-c3ccccc3)cc2/C=C2\SC(N)=NC2=O)cc1C
EC50 [2]: > 60 µM (not active) | EC50 [3]: 1.04 µM (active)

COc1cc(-c2nc3ccccn3c2NCc2ccccc2)ccc1SC1CCCCC1
EC50 [2]: > 60 µM (not active) | EC50 [3]: 0.954 µM (active)

Cc1nc(N2CCN(c3ccccc3O)CC2)c2c(-c3ccccc3)csc2n1
EC50 (Streptococcus): > 150 µM (not active) | EC50 (Streptokinase A): 34.4 µM (active) | EC50 [1]: 15.1 µM (active)

CC(CCc1ccccc1)NC(=O)/C=C/c1ccccc1 (stereo not given)
AC50 (Cytochrome P450 3A4): 25.1 µM (inconclusive)

N#Cc1ccc(CN2CCC3(CC2)CCN(S(=O)(=O)c2ccccc2)CC3)cc1
AC50 (Cytochrome P450 3A4): 20 µM (inconclusive)

CC(C)=NO[C@@H](C)CN1CCCCc2nc(C)c(C)cc21
AC50 (Cytochrome P450 3A4): 3.98 µM (inconclusive)

COC(=O)c1ccc(Oc2nc3ccccc3n3c(C)nnc23)cc1
EC50 (Streptococcus): 61.2 µM (active) | EC50 (Streptokinase A): > 150 µM (not active) | EC50 [1]: 3.82 µM (active)

Cc1ccc(C(=O)NCc2ccc(N3CCN(C(=O)OC(C)(C)C)CC3)cc2)cc1
AC50 (Cytochrome P450 2C19; read-out: AC50): 14.1 µM (inconclusive)

Cc1cc(C)cc(C(=O)N2CCC(CCC(=O)NC3CC3)CC2)c1
EC50 (Streptococcus): > 150 µM (not active) | EC50 (Streptokinase A): > 150 µM (not active) | EC50 [1]: > 150 µM (not active)

O=C(O)CCCc1ccc2ccccc2c1
AC50 (Cytochrome P450 1A2): 3.16 µM (inconclusive)

CO/C(O)=C1\C(C)=NC2=C(C(=O)c3ccccc32)C1c1ccc(-c2ccc(C(=O)O)cc2)o1 (stereo not given)
EC50 (Streptococcus): 69 µM (active) | EC50 (Streptokinase A): > 150 µM (not active) | EC50 [1]: 3.77 µM (active)

COc1cc(COc2cc(N)c(Cl)cc2C(=O)CCC2CCN(CCNS(C)(=O)=O)CC2)cc(OC)c1
AC50 (Cytochrome P450 2C19; read-out: AC50): 15.8 µM (inconclusive)

CC(C)=CCC/C(C)=C/CC/C(C)=C/CSc1ccccc1C(=O)O [SALIRASIB]
AC50 (Cytochrome P450 3A4): 31.6 µM (inconclusive)
